This is an account of results in US7943774B2 (priority 2008, dated 2011).

In general, chromatographic logP refers to a lipophilicity value derived from retention on a column.

Bounds are passed on as bounds.

The subject of series [1] is Phytophthora infestans. Put plainly: whole plant or invertebrate. Type of series: in vivo. The following applies: in Solanum lycopersicum, 168 h, read-out: efficacy.
Series [2] has as its system Plasmopara viticola. Briefly: Plasmopara test (grapevine)/protective. It is filed as in vivo. The following applies: 144 h, active compound concentration of 100 ppm, young grapevine plants sprayed, then inoculated, evaluation 6 days after inoculation, 0% = control, 100% = no infection, read-out: efficacy. As for the experimental part:
Plasmopara Test (Grapevine)/Protective
After the spray coating has dried on, the plants are inoculated with an aqueous spore suspension of Plasmopara viticola and then remain in an incubation cabin at about 20° C. and 100% relative atmospheric humidity for 1 day. The plants are then placed in a greenhouse at about 21° C. and an atmospheric humidity of about 90% for 4 days. The plants are then moistened and placed in an incubation cabin for 1 day.
Evaluation is carried out 6 days after the inoculation.

Series [3] in a line: log P (pH2.3). It is filed as physicochemical. The following applies: for chromatographic logP: reversed-phase HPLC column (C18).
[4] abbreviates: method [b]: LC-MS, acidic range, pH 2.7, 0.1% aqueous formic acid and acetonitrile.
Setting [5] is: method [b]: LC-MS, acidic range, pH 2.7, 0.1% aqueous formic acid and acetonitrile, HPLC on reversed-phase C 18.

On to `COc1ccc(C#Cc2csc(C3CCN(C(=O)Cn4nc(C(F)(F)F)cc4C)CC3)n2)cc1` [Example I-100, 1-(4-{4-[(4-Methoxyphenyl)ethynyl]-1,3-thiazol-2-yl}piperidin-1-yl)-2-[5-methyl-3-(trifluoromethyl)-1H-pyrazol-1-yl]ethanone], for which the pest or weed control at 500 ppm in series [1] was ≥ 70%. The pest or weed control at 100 ppm in series [2] is ≥ 70%. Besides, the chromatographic logP in series [3] (setting [4]) amounted to 3.79.
Take `Cc1cc(C(F)(F)F)nn1CC(=O)N1CCC(c2nc(CCc3cccc4ccccc34)cs2)CC1` [Example I-81, 2-[5-Methyl-3-(trifluoromethyl)-1H-pyrazol-1-yl]-1-(4-{4-[2-(naphthalen-1-yl)ethyl]-1,3-thiazol-2-yl}piperidin-1-yl)ethanone]: the pest or weed control at 500 ppm in series [1] was ≥ 70%. Besides, in series [2], the pest or weed control at 100 ppm was ≥ 70%. Besides, in series [3] (setting [4]), the chromatographic logP worked out at 4.37.
Consider `Cc1cc(C(F)(F)F)nn1CC(=O)N1CCC(c2nc(C#Cc3cccnc3)cs2)CC1` [Example I-51, 2-[5-Methyl-3-(trifluoromethyl)-1H-pyrazol-1-yl]-1-{4-[4-(pyridin-3-ylethynyl)-1,3-thiazol-2-yl]piperidin-1-yl}ethanone], for which the pest or weed control at 500 ppm in series [1] is ≥ 70%. Also, in series [2], the pest or weed control at 100 ppm was ≥ 70%. In series [3] (setting [4]), this compound yielded a chromatographic logP of 2.68.
In the case of `Cc1cc(C(F)(F)F)nn1CC(=O)N1CCC(c2nc(C#Cc3cccc4ccccc34)cs2)CC1` [Example I-50, 2-[5-Methyl-3-(trifluoromethyl)-1H-pyrazol-1-yl]-1-{4-[4-(naphthalen-1-ylethynyl)-1,3-thiazol-2-yl]piperidin-1-yl}ethanone], the pest or weed control at 500 ppm in series [1] is ≥ 70%. In series [2], the pest or weed control at 100 ppm is ≥ 70%. For the same compound, the chromatographic logP in series [3] (setting [4]) stood at 4.5; in series [3] (method [c]: LC-MS, neutral range, pH 7.8, 0.001 molar aqueous ammonium bicarbonate and acetonitrile), 4.66.
Turning to `Cc1cc(C(F)(F)F)nn1CC(=O)N1CCC(c2nc(CCc3ccccc3)cs2)CC1` [Example I-53, 2-[5-Methyl-3-(trifluoromethyl)-1H-pyrazol-1-yl]-1-{4-[4-(2-phenylethyl)-1,3-thiazol-2-yl]piperidin-1-yl}ethanone], the pest or weed control at 500 ppm in series [1] was ≥ 70%. Moreover, the pest or weed control at 100 ppm in series [2] was ≥ 70%. In series [3] (method [a]: HPLC, acidic range, pH 2.3, 0.1% aqueous phosphoric acid and acetonitrile), this compound had a chromatographic logP of 3.79.
`COc1ccccc1C#Cc1csc(C2CCN(C(=O)Cn3nc(C(F)(F)F)cc3C)CC2)n1` [Example I-103, 1-(4-{4-[(2-Methoxyphenyl)ethynyl]-1,3-thiazol-2-yl}piperidin-1-yl)-2-[5-methyl-3-(trifluoromethyl)-1H-pyrazol-1-yl]ethanone]: the pest or weed control at 500 ppm in series [1] was ≥ 70%. Moreover, the pest or weed control at 100 ppm in series [2] is ≥ 70%. The chromatographic logP in series [3] (setting [4]) was determined as 3.67.
In the case of `Cc1cc(C(F)(F)F)nn1CC(=O)N1CCC(c2nc(C#CCc3ccccc3)cs2)CC1` [Example I-52, 2-[5-Methyl-3-(trifluoromethyl)-1H-pyrazol-1-yl]-1-{4-[4-(3-phenylprop-1-yn-1-yl)-1,3-thiazol-2-yl]piperidin-1-yl}ethanone], in series [1], the pest or weed control at 500 ppm is ≥ 70%. Further, in series [3] (setting [4]), the chromatographic logP was 3.88.
For `Cc1cc(C(F)(F)F)nn1CC(=O)N1CCC(c2nc(C#C[Si](C)(C)C)cs2)CC1` [Example I-98, 2-[5-Methyl-3-(trifluoromethyl)-1H-pyrazol-1-yl]-1-(4-{4-[(trimethylsilyl)ethynyl]-1,3-thiazol-2-yl}piperidin-1-yl)ethanone], in series [1], the pest or weed control at 500 ppm was ≥ 70%. For the same compound, the pest or weed control at 100 ppm in series [2] is ≥ 70%. In series [3] (setting [4]), the chromatographic logP amounted to 4.28.
Take `Cc1cc(C(F)(F)F)nn1CC(=O)N1CCC(c2nc(/C=C\c3cccc4ccccc34)cs2)CC1` [Example I-2, 2-[5-Methyl-3-(trifluoromethyl)-1H-pyrazol-1-yl]-1-(4-{4-[(Z)-2-(naphthalen-1-yl)ethenyl]-1,3-thiazol-2-yl}piperidin-1-yl)ethanone]: the pest or weed control at 500 ppm in series [1] was ≥ 70%. Also, in series [3] (setting [4]), the chromatographic logP is 4.52.
As for `Cc1cc(C(F)(F)F)nn1CC(=O)N1CCC(c2nc(/C=C\CC(C)c3ccccc3)cs2)CC1` (centres unmarked) [Example I-3, 2-[5-Methyl-3-(trifluoromethyl)-1H-pyrazol-1-yl]-1-(4-{4-[(1Z)-4-phenylpent-1-en-1-yl]-1,3-thiazol-2-yl}piperidin-1-yl)ethanone], the pest or weed control at 500 ppm in series [1] is ≥ 70%. This compound came in with a chromatographic logP in series [3] (setting [4]) of 4.84.
`Cc1cc(C(F)(F)F)nn1CC(=S)N1CCC(c2nc(/C=C/c3ccccc3)cs2)CC1` [Example I-93, 2-[5-Methyl-3-(trifluoromethyl)-1H-pyrazol-1-yl]-1-(4-{4-[(E)-2-phenylethenyl]-1,3-thiazol-2-yl}piperidin-1-yl)ethanethione]: in series [1], the pest or weed control at 500 ppm was ≥ 70%. Further, the pest or weed control at 100 ppm in series [2] was ≥ 70%. Besides, in series [3] (setting [4]), the chromatographic logP came to 4.65.
Take `Cc1cc(C(F)(F)F)nn1CC(=O)N1CCC(c2nc(CCCC(C)c3ccccc3)cs2)CC1` (centres unmarked) [Example I-80, 2-[5-Methyl-3-(trifluoromethyl)-1H-pyrazol-1-yl]-1-{4-[4-(4-phenylpentyl)-1,3-thiazol-2-yl]piperidin-1-yl}ethanone]: in series [1], the pest or weed control at 500 ppm was ≥ 70%. In addition, the pest or weed control at 100 ppm in series [2] is ≥ 70%. In series [3] (setting [4]), the chromatographic logP was 4.77.
For `Cc1cc(C(F)(F)F)nn1CC(=O)N1CCC(c2nc(/C=C/c3cccc4ccccc34)cs2)CC1` [Example I-27, 2-[5-Methyl-3-(trifluoromethyl)-1H-pyrazol-1-yl]-1-(4-{4-[(E)-2-(naphthalen-1-yl)ethenyl]-1,3-thiazol-2-yl}piperidin-1-yl)ethanone], the pest or weed control at 500 ppm in series [1] is ≥ 70%. The chromatographic logP in series [3] (setting [4]) amounted to 4.63.
Take `Cc1ccc(C)c(CC(=O)N2CCC(c3nc(C#Cc4ccccc4C)cs3)CC2)c1` [Example I-230]: the log p is 4.75^[b] in series [3] (setting [5]); 4.78^[c]; in series [3] (method [c]: LC-MS, neutral range, pH 7.8, 0.001 molar aqueous ammonium bicarbonate solution and acetonitrile, HPLC on reversed-phase C 18).
In the case of `O=C(Cn1nc(C(F)F)cc1C(F)F)N1CCC(c2nc(CCC3CCCc4ccccc43)cs2)CC1` (centres unmarked) [Example I-149], the log p in series [3] (setting [5]) was 4.78^[b].
For `CC(C)c1cc(C(F)(F)F)n(CC(=O)N2CCC(c3nc(CCc4cccc5ccccc45)cs3)CC2)n1` [Example I-121], the log p in series [3] (setting [4]) was 4.89^[b].
On the same count and under the same terms, the same measure for `CCc1cc(C(F)(F)F)nn1CC(=O)N1CCC(c2nc(C#Cc3cccc4ccccc34)cs2)CC1` [Example I-116]: 4.8^[b].
On the same count and under the same terms, the same measure for `CC(C)(C)c1cc(C(F)(F)C(F)(F)F)nn1CC(=O)N1CCC(c2nc(CCc3cccc4ccccc34)cs2)CC1` [Example I-113]: 5.54^[b].
On to `C#Cc1csc(C2CCN(C(=O)Cn3nc(C(F)(F)F)cc3C)CC2)n1` [Example I-86, 1-[4-(4-Ethynyl-1,3-thiazol-2-yl)piperidin-1-yl]-2-[5-methyl-3-(trifluoromethyl)-1H-pyrazol-1-yl]ethanone], for which the chromatographic logP in series [3] (setting [4]) came to 2.57.
Consider `O=C(Cn1nc(C(F)(F)F)cc1C(F)(F)F)N1CCC(c2nc(CCc3cccc4ccccc34)cs2)CC1` [Example I-43], for which, in series [3] (setting [4]), the log p was 4.89^[b].
